According to EP4029501A1, “COMBINATION OF POLYAROMATIC UREA DERIVATIVES AND GLUCOCORTICOID OR HDAC INHIBITOR FOR THE TREATMENT OF DISEASES OR CONDITIONS ASSOCIATED WITH MUSCLE CELLS AND/OR SATELLITE CELLS” (Anagenesis Biotechnologies, priority 2021, dated 2022):

Tested on: muscle progenitors derived from DMD hiPSC
Assay: Myotube assay: total myotube area per well (alpha-actinin staining)
Assay type: cell-based, human
Details: Homo sapiens, Myotube, 72 h, DMD or WT cell source not given; for Emax: efficacy, MA = normalized Myotube Area, 3 days incubation; for EC50: myogenic activity, half-maximal generation of myotubes, 10 points dose-response 1.5 nM to 30 µM, 3 days
Description: An in vitro assay for assessing the efficacy of compounds for use in treating, ameliorating, delaying, curing and/or preventing a disease or condition associated with muscle cells and/or satellite cells is described in example 78. Herein, the generation of myotubes and satellite cells after adding a compound to a myotube assay workflow is assessed. Said myotube assay workflow is derived from wild-type or DMD human induced pluripotent stem cells (WT hiPSC or DMD hiPSC). Before the addition of said compound, the assay comprises satellite-like cells, but no significant amount of myotubes.
The efficacy of said compound for use in treating, ameliorating, delaying, curing and/or preventing a disease or condition associated with muscle cells and/or satellite cells is positively correlated with the generation of myotubes (i.e. the increase of the area occupied by myotubes on the assay) and/or satellite cells (i.e. the increase of the number of satellite cells) in the assay after adding said compound. The generation of myotubes by the addition of said compound is expressed as the EC50 value, the concentration of said compound that corresponds with the half-maximal generation of myotubes, and the MA (normalized myotube area) value, the normalized area occupied by generated myotubes on the assay. […] Since muscle cells are formed from myotubes during myogenesis, the generation of myotubes in the assay is a good indicator of the ability of said compound to induce the formation of functional muscle cells in vivo. The number of satellite cells is measured as the percentage of Pax7 positive cells, relative to the total number of cells in the assay, as shown in Figure 3. The percentage of Pax7 is a good indicator of the ability of said compound to induce the formation of satellite cells which are able to play a role in muscle repair and regeneration in vivo.
DMD human induced pluripotent stem cells (hereafter "DMD hiPSC"), generated from the NCRM-1 hiPSC WT cell line by gene editing, or WT human induced pluripotent stem cells (hereafter "WT hiPSC"), being NCRM-1 hiPSC wt cell line, have been differentiated according to Chal et al. 2015, 2016, to produce muscle progenitors (hereafter "hMP"). The hMP population contains satellite-like cells (i.e Pax7-positive cells) and satellite cells' progenies (i.e. Myogenin-positive cells).
Figure 1 provides an example of a Myotube assay workflow. At day 0, hMP are thawed and 3.1 million cells are plated into a T75-flask coated with hESC-qualified Matrigel™ (Corning) in SkGM proliferating medium (PromoCells), supplemented with 5 µM Y-27632 (Tocris Bioscience). On day 2, SkGM proliferating medium is refreshed. On day 4, hMP are harvested and transferred into a 384-well plate coated with collagen type I at a density of 3500 cells/well in a DMEM-based medium, containing 5% of knockout serum replacement (Gibco), 1% PenStrep (Gibco), 1% MEM NEAA (Gibco) and 0.1 mM 2-mercaptoethanol (Gibco) (hereafter "K5 medium") and 5 µM Y-27632. Compounds to be tested are then added in the medium and incubated for 3 days at 37°C. On day 7, cells are fixed and immunostained. For example, myotubes (alpha-actinin staining) and satellite-like (Pax7 staining) cells can be analyzed for total myotube area per well or Pax7-positive cell quantification.
DMD hMP were put in the Myotube assay according to the workflow described in Example 2.1. In particular, compound (i) was added at concentrations ranging from 1.5 nM to 30 µM, starting from day 4. hMP were cultivated for three more days in presence of compound (i), then fixed and analyzed for quantification of total myotube area per well. Duplicates of each condition were averaged.

| EC50 [nM] | Compound | Emax [%] |
| --- | --- | --- |
| 500 to 1000 | CSc1cc(Oc2ccnc(NC(C)=O)c2)ccc1NC(=O)Nc1cc(C(C)(C)C)nn1-c1ccccc1 [(aq), N-(4-(4-(3-(3-(tert-butyl)-1-phenyl-1H-pyrazol-5-yl)ureido)-3-(methylthio)phenoxy)pyridin-2-yl)acetamide] | ≥ 75 |
| < 500 | CCOC(=O)Nc1cc(Oc2ccc(NC(=O)Nc3cc(C(C)(C)C)no3)c(SC)c2)ccn1 [(de), ethyl (4-(4-(3-(3-(tert-butyl)isoxazol-5-yl)ureido)-3-(methylthio)phenoxy)pyridin-2-yl)carbamate] | ≥ 75 |
| < 500 | CSc1cc(Oc2ccnc3[nH]c(=O)cnc23)ccc1NC(=O)Nc1cc(C(C)(C)C)nn1-c1ccc(CN2CCOCC2)cc1 [(dd), 1-(3-(tert-butyl)-1-(4-(morpholinomethyl)phenyl)-1 H-pyrazol-5-yl)-3-(2-(methylthio)-4-((3-oxo-3,4-dihydropyrido[2,3-b]pyrazin-8-yl)oxy)phenyl)urea] | ≥ 75 |
| < 500 | CSc1cc(Oc2ccnc3[nH]c(=O)cnc23)ccc1NC(=O)Nc1cc(C(C)(C)C)nn1-c1ccc(C)c(Cl)c1 [(cl), 1-(3-(tert-butyl)-1-(3-chloro-4-methylphenyl)-1H-pyrazol-5-yl)-3-(2-(methylthio)-4-((3-oxo-3,4-dihydropyrido[2,3-b]pyrazin-8-yl)oxy)phenyl)urea] | ≥ 75 |
| ≥ 5000 | CSc1cc(Oc2ccncc2)ccc1NC(=O)Nc1cc(C(C)(C)C)nn1-c1ccccc1 [(dk), 1-(3-(tert-butyl)-1-phenyl-1 H-pyrazol-5-yl)-3-(2-(methylthio)-4-(pyridin-4-yloxy)phenyl)urea] | 25 to 50 |
| 500 to 1000 | CSc1cc(Oc2ccnc3[nH]c(=O)cnc23)ccc1NC(=O)Nc1cc(C(C)(C)C)nn1-c1ccc(F)c(Cl)c1 [(cm), 1-(3-(tert-butyl)-1-(3-chloro-4-fluorophenyl)-1H-pyrazol-5-yl)-3-(2-(methylthio)-4-((3-oxo-3,4-dihydropyrido[2,3-b]pyrazin-8-yl)oxy)phenyl)urea] | ≥ 75 |
| < 500 | CSc1cc(Oc2ccnc(NC(=O)OC(C)(C)C)c2)ccc1NC(=O)Nc1cc(C(C)(C)C)nn1-c1ccccc1 [(bi), tert-butyl (4-(4-(3-(3-(tert-butyl)-1-phenyl-1H-pyrazol-5-yl)ureido)-3-(methylthio)phenoxy)pyridin-2-yl)carbamate] | ≥ 75 |
| < 500 | CC(C)(C)c1cnc(NC(=O)Nc2ccc(Oc3ccnc4c3CCC(=O)N4)c3ccccc23)s1 [(cu), 1-(5-(tert-butyl)thiazol-2-yl)-3-(4-((7-oxo-5,6,7,8-tetrahydro-1,8-naphthyridin-4-yl)oxy)naphthalen-1-yl)urea] | ≥ 75 |
| ≥ 5000 | CC(C)(C)c1cc(NC(=O)Nc2ccc(C(=O)c3ccncc3)cc2)n(-c2ccccc2)n1 [(cs), 1-(3-(tert-butyl)-1-phenyl-1 H-pyrazol-5-yl)-3-(4-isonicotinoylphenyl)urea] | 25 to 50 |
| 500 to 1000 | CC(C)Cc1cc(NC(=O)Nc2ccc(Oc3ccnc4[nH]c(=O)cnc34)cc2F)n(-c2ccccc2)n1 [(g), 1-(2-fluoro-4-((3-oxo-3,4-dihydropyrido[2,3-b]pyrazin-8-yl)oxy)phenyl)-3-(3-isobutyl-1-phenyl-1H-pyrazol-5-yl)urea] | ≥ 75 |
| < 500 | CC(C)(C)c1cc(NC(=O)Nc2ccc(Oc3ccnc4[nH]c(=O)cnc34)nc2)n(-c2ccccc2)n1 [(t), 1-(3-(tert-butyl)-1-phenyl-1 H-pyrazol-5-yl)-3-(6-((3-oxo-3,4-dihydropyrido[2,3-b]pyrazin-8-yl)oxy)pyridin-3-yl)urea] | 25 to 50 |
| 1000 to 5000 | CSc1cc(Oc2ccnc(NS(C)(=O)=O)c2)ccc1NC(=O)Nc1cc(C(C)(C)C)no1 [(dl), N-(4-(4-(3-(3-(tert-butyl)isoxazol-5-yl)ureido)-3-(methylthio)phenoxy)pyridin-2-yl)methanesulfonamide] | ≥ 75 |
| 500 to 1000 | CNC(=O)c1ccc(Oc2ccc(NC(=O)Nc3cc(C(C)(C)C)nn3-c3ccccc3)c(SC)c2)cn1 [(ap), 5-(4-(3-(3-(tert-butyl)-1-phenyl-1H-pyrazol-5-yl)ureido)-3-(methylthio)phenoxy)-N-methylpicolinamide] | 25 to 50 |
| 500 to 1000 | CC(C)(C)c1cc(NC(=O)Nc2ccc(Oc3ccncc3)cc2)n(-c2ccccc2)n1 [(bl), 1-(3-(tert-butyl)-1-phenyl-1 H-pyrazol-5-yl)-3-(4-(pyridin-4-yloxy)phenyl)urea] | 50 to 75 |
| ≥ 5000 | O=C(Nc1ccc(Oc2ccnc3[nH]c(=O)cnc23)cc1F)Nc1cc(C2CC2)nn1-c1ccccc1 [(e), 1-(3-cyclopropyl-1-phenyl-1 H-pyrazol-5-yl)-3-(2-fluoro-4-((3-oxo-3,4-dihydropyrido[2,3-b]pyrazin-8-yl)oxy)phenyl)urea] | 25 to 50 |
| 1000 to 5000 | CSc1cc(Oc2ccnc3[nH]c(=O)[nH]c23)ccc1NC(=O)Nc1cc(C(C)(C)C)nn1-c1ccccc1 [(dm), 1-(3-(tert-butyl)-1-phenyl-1H-pyrazol-5-yl)-3-(2-(methylthio)-4-((2-oxo-2,3-dihydro-1H-imidazo[4,5-b]pyridin-7-yl)oxy)phenyl)urea] | ≥ 75 |
| ≥ 5000 | CSc1cc(Oc2ccnc3[nH]c(=O)cnc23)ccc1NC(=O)Nc1nc(-c2ccc(F)c(F)c2)cs1 [(ax), 1-(4-(3,4-difluorophenyl)thiazol-2-yl)-3-(2-(methylthio)-4-((3-oxo-3,4-dihydropyrido[2,3-b]pyrazin-8-yl)oxy)phenyl)urea] | 50 to 75 |
| < 500 | CC(=O)Nc1cc(Oc2ccc(NC(=O)Nc3cc(C(C)(C)C)nn3-c3ccccc3)c3ccccc23)ccn1 [(dj), N-(4-((4-(3-(3-(tert-butyl)-1-phenyl-1H-pyrazol-5-yl)ureido)naphthalen-1-yl)oxy)pyridin-2-yl)acetamide] | ≥ 75 |
| ≥ 5000 | CSc1cc(Oc2ccnc3[nH]c(=O)cnc23)ccc1NC(=O)Nc1cc(C(C)(C)C)nn1-c1ccccc1Cl [(at), 1-(3-(tert-butyl)-1-(2-chlorophenyl)-1H-pyrazol-5-yl)-3-(2-(methylthio)-4-((3-oxo-3,4-dihydropyrido[2,3-b]pyrazin-8-yl)oxy)phenyl)urea] | ≥ 75 |
| < 500 | CCOC(=O)Nc1cc(Oc2ccc(NC(=O)Nc3ncc(C(C)(C)C)s3)c3ccccc23)ccn1 [(dc), ethyl (4-((4-(3-(5-(tert-butyl)thiazol-2-yl)ureido)naphthalen-1-yl)oxy)pyridin-2-yl)carbamate] | ≥ 75 |
| ≥ 5000 | CCC(C)c1cc(NC(=O)Nc2ccc(Oc3ccnc4[nH]c(=O)cnc34)cc2F)n(-c2ccccc2)n1 (stereo not shown) [(c), 1-(3-(sec-butyl)-1-phenyl-1 H-pyrazol-5-yl)-3-(2-fluoro-4-((3-oxo-3,4-dihydropyrido[2,3-b]pyrazin-8-yl)oxy)phenyl)urea] | 50 to 75 |
| 1000 to 5000 | Cc1nc2c(Oc3ccc(NC(=O)Nc4cc(C(C)(C)C)nn4-c4ccccc4)c(F)c3)ccnc2c(=O)[nH]1 [(w), 1-(3-(tert-butyl)-1-phenyl-1 H-pyrazol-5-yl)-3-(2-fluoro-4-((2-methyl-4-oxo-3,4-dihydropyrido[3,2-d]pyrimidin-8-yl)oxy)phenyl)urea] | 50 to 75 |
| 500 to 1000 | COc1cccc(-n2nc(C(C)(C)C)cc2NC(=O)Nc2ccc(Oc3ccnc4[nH]c(=O)cnc34)cc2SC)c1 [(aw), 1-(3-(tert-butyl)-1-(3-methoxyphenyl)-1 H-pyrazol-5-yl)-3-(2-(methylthio)-4-((3-oxo-3,4-dihydropyrido[2,3-b]pyrazin-8-yl)oxy)phenyl)urea] | ≥ 75 |
